What all share (format): functional
In experiment [1] the test system is Mycobacterium tuberculosis. In words: Antimycobacterial activity against multidrug-resistant Mycobacterium tuberculosis Praha 1 after 14 days by micromethod. The following applies: Praha 1, 336 h.
Experiment [2] deals with Mycobacterium tuberculosis. In words: Antimycobacterial activity against multidrug-resistant Mycobacterium tuberculosis Praha 4 after 14 days by micromethod. To be noted: Praha 4, 336 h.
Experiment [3] relates to Mycobacterium tuberculosis. In words: Antimycobacterial activity against multidrug-resistant Mycobacterium tuberculosis Praha 131 after 14 days by micromethod. To be noted: Praha 131, 336 h.
The test system of experiment [4] is Mycobacterium tuberculosis. In words: Antimycobacterial activity against multidrug-resistant Mycobacterium tuberculosis 9449/2007 after 14 days by micromethod. To be noted: 9449/2007, 336 h.
For experiment [5], the system named is Mycobacterium tuberculosis. The experiment in a line: Antimycobacterial activity against multidrug-resistant Mycobacterium tuberculosis 234/2005 after 14 days by micromethod. To be noted: 234/2005, 336 h.
The test system of experiment [6] is Mycobacterium tuberculosis. In words: Antimycobacterial activity against multidrug-resistant Mycobacterium tuberculosis 7357/1998 after 14 days by micromethod. The following applies: 7357/1998, 336 h.
In experiment [7] the test system is Mycobacterium tuberculosis. In words: Antimycobacterial activity against multidrug-resistant Mycobacterium tuberculosis 8666/2010 after 14 days by micromethod. The following applies: 8666/2010, 336 h.
Experiment [8] deals with Mycobacterium tuberculosis. The experiment in a line: Antimycobacterial activity against multidrug-resistant Mycobacterium tuberculosis Praha 1 after 21 days by micromethod. The following applies: Praha 1, 504 h.
Experiment [9] relates to Mycobacterium tuberculosis. The experiment in a line: Antimycobacterial activity against multidrug-resistant Mycobacterium tuberculosis Praha 4 after 21 days by micromethod. The following applies: Praha 4, 504 h.
The test system of experiment [10] is Mycobacterium tuberculosis. In words: Antimycobacterial activity against multidrug-resistant Mycobacterium tuberculosis Praha 131 after 21 days by micromethod. To be noted: Praha 131, 504 h.
Experiment [11] deals with Mycobacterium tuberculosis. The experiment in a line: Antimycobacterial activity against multidrug-resistant Mycobacterium tuberculosis 9449/2007 after 21 days by micromethod. The following applies: 9449/2007, 504 h.
The subject of experiment [12] is Mycobacterium tuberculosis. The experiment in a line: Antimycobacterial activity against multidrug-resistant Mycobacterium tuberculosis 234/2005 after 21 days by micromethod. The following applies: 234/2005, 504 h.
Experiment [13] relates to Mycobacterium tuberculosis. The experiment in a line: Antimycobacterial activity against multidrug-resistant Mycobacterium tuberculosis 7357/1998 after 21 days by micromethod. To be noted: 7357/1998, 504 h.
For experiment [14], the system named is Mycobacterium tuberculosis. The experiment in a line: Antimycobacterial activity against multidrug-resistant Mycobacterium tuberculosis 8666/2010 after 21 days by micromethod. To be noted: 8666/2010, 504 h.

≈ marks a conversion by molar mass, not a printed value.

The record followed here is ChEMBL document CHEMBL4002566, “S-substituted 3,5-dinitrophenyl 1,3,4-oxadiazole-2-thiols and tetrazole-5-thiols as highly efficient antitubercular agents” (Eur J Med Chem, 2017).

For orientation: MIC means the smallest concentration in the dilution series that meets the test's criterion for growth inhibition. Read a low MIC as greater potency. As for `O=[N+]([O-])c1cc(-c2nnc(SCc3ccc(Cl)cc3)o2)cc([N+](=O)[O-])c1`, the minimum inhibitory concentration (MIC) in [1], in [2], in experiment [3], in experiment [4], in experiment [5] and in experiment [6] was 0.03 µM (≈ 0.0118 µg/mL) throughout. In addition, the MIC in experiment [7] amounted to 0.03 µM (≈ 0.0118 µg/mL); in [8], 0.06 µM (≈ 0.0236 µg/mL); in experiment [9], 0.06 µM (≈ 0.0236 µg/mL); in experiment [10], 0.06 µM (≈ 0.0236 µg/mL); in experiment [11] it was 0.06 µM (≈ 0.0236 µg/mL); in experiment [12] it was 0.06 µM (≈ 0.0236 µg/mL). Besides, the minimum inhibitory concentration (MIC) in [13] and in experiment [14] was 0.06 µM (≈ 0.0236 µg/mL) each time.
